The target of this assay is T1, human αvβ3 (Homo sapiens, UniProt P05106+P06756).
T1 construct: purchased Chemicon CC1019
T1 sequence (P06756 31-889 limits assumed): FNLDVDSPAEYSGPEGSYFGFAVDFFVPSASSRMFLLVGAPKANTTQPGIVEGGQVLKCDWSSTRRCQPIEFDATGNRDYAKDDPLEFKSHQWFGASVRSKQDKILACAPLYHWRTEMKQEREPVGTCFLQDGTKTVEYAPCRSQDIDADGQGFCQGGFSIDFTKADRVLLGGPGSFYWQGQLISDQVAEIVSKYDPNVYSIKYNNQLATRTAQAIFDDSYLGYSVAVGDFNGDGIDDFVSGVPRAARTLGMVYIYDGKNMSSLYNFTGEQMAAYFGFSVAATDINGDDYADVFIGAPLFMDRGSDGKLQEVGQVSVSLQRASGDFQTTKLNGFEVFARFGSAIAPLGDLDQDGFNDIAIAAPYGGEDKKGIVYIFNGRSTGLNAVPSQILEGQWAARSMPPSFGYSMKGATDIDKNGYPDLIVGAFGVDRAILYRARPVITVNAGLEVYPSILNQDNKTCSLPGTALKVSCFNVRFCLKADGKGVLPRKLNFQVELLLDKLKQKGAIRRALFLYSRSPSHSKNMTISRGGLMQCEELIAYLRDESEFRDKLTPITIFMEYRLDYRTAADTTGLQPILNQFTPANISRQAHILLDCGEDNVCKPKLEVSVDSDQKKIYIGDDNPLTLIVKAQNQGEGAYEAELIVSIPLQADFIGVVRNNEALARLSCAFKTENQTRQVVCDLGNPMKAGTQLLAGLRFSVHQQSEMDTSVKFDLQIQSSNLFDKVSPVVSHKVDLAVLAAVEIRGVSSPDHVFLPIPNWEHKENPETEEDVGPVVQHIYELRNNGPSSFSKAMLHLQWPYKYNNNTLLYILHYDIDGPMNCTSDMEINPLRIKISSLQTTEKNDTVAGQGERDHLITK
T1 sequence (P06756 891-1048 limits assumed): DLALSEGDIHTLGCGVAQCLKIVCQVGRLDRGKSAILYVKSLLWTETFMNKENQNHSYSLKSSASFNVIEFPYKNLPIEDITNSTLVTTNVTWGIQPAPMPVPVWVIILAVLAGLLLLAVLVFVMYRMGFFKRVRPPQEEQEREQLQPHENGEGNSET
T1 sequence (P05106 27-788): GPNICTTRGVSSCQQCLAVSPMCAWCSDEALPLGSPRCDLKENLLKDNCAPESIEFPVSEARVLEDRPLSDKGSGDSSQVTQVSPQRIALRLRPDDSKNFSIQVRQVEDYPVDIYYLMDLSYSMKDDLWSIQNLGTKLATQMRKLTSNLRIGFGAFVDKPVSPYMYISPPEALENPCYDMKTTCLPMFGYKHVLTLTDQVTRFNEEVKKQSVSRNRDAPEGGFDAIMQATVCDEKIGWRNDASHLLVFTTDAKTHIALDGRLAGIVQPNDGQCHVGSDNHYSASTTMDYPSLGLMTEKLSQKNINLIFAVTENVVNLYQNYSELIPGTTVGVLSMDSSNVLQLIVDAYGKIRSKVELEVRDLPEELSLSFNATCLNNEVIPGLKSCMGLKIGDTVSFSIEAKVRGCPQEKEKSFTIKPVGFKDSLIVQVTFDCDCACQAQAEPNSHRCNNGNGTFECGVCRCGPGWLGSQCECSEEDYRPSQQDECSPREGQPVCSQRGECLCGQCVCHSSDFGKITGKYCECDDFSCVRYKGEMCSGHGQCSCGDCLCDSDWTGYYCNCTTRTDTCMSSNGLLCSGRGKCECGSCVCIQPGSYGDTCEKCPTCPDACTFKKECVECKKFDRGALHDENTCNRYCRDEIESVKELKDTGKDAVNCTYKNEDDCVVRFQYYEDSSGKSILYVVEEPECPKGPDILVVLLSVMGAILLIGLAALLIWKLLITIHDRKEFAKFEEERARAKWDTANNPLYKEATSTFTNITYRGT
In words: αvβ3-vitronectin Assay. To be noted: inhibition of binding of biotinylated human vitronectin to plate-coated human αvβ3, ELISA, room temperature. The procedure:
The assay is based on the method of Dennis (Dennis, M. S., et al., Proteins 15: […] (1993)). Costar 9018 flat-bottom 96-well ELISA plates were coated overnight at […] with 100 μL/well of 10 μg/mL human fibrinogen (Calbiochem 341578) in 20 mM Tris-HCl pH 7.5, 150 mM NaCl, 2 mM CaCl2, 0.02% NaN3 (TAC buffer), and blocked for 1 hr at 37° C. with 150 μL/well of TAC buffer containing 0.05% Tween 20 and 1% bovine serum albumin (TACTB buffer). After washing 3 times with 200 μL/well of 10 mM Na2 HPO4 pH 7.5, 150 mM NaCl, 0.01% Tween 20 (PBST buffer), controls or test compound (0.027–20.0 μM) were mixed with 40 μg/mL human GPIIbIIIa (Enzyme Research Laboratories) in TACTB buffer, and 100 μL/well of these solutions were incubated for 1 hr at 37° C. The plate was then washed 5 times with PBST buffer, and 100 μL/well of a monoclonal anti-GPIIbIIIa antibody in TACTB buffer (1 μg/mL, Enzyme Research Laboratories MabGP2b3a) was incubated at 37° C. for 1 hr. After washing (5 times with PBST buffer), 100 μL/well of goat anti-mouse IgG conjugated to horseradish peroxidase (Kirkegaard & Perry 14–23–06) was incubated at 37° C. for 1 hr (25 ng/mL in PBST buffer), followed by a 6-fold PBST buffer wash. The plate was developed by adding 100 μL/well of 0.67 mg o-phenylenediamine dihydrochloride per mL of 0.012% H2O2, 22 mM sodium citrate, 50 mM sodium phosphate, pH 5.0 at room temperature. The reaction was stopped with 50 μL/well of 2M H2SO4, and the absorbence at 492 nm was recorded. Percent (%) inhibition was calculated from the average of three separate determinations relative to buffer controls (no test compound added), and a four parameter fit (Marquardt, D. W., J. Soc. Indust. Appl. Math. 11:431–441 (1963)) was used to estimate the half maximal inhibition concentration (IC50).
The assay was based on the method of Niiya (Niiya, K., et al., Blood 70:475–483 (1987)). Costar 9018 flat-bottom 96-well ELISA plates were coated overnight at room temperature with 100 μL/well of 0.4 μg/mL human αvβ3 (Chemicon CC1019) in TS buffer (20 mM Tris-HCl pH 7.5, 150 mM NaCl, 1 mM CaCl2, 1 mM MgCl2, 1 mM MnCl2). All subsequent steps were performed at room temperature. Plates were blocked for 2 hr with 150 μL/well of TS buffer containing 1% BSA (TSB buffer), and washed 3 times with 200 μL/well of PBST buffer. Controls or test compound (0.0001–20.0 μM) were mixed with 1 μg/mL of human vitronectin (Chemicon CCO80) that had been biotinylated in-house with sulfo-NHS-LC-LC-biotin (Pierce 21338, 20:1 molar ratio), and 100 μL/well of these solutions (in TSB buffer) were incubated for 2 hr. The plate was then washed 5 times with PBST buffer, and 100 μL/well of 0.25 μg/mL NeutrAvidin-horseradish peroxidase conjugate (Pierce 31001) in TSB buffer was incubated for 1 hr. Following a 5-fold PBST buffer wash, the plate was developed and results were calculated as described for the fibrinogen-IIbIIIa assay.
With “3-{5-[3-(2-Pyridylamino)propoxy]indolyl}propanoic acid ammonium salt [Example 1]”, the IC50 came to 0.5 µM. Molecule `O=C(O)[C@@H]1C[C@H]1n1ccc2cc(OCCCNc3ccccn3)ccc21` (relative stereo) [Example 4] displayed an IC50 of 0.67 µM. In the case of `CNc1cccc(CCOc2ccc3c(ccn3CCC(=O)O)c2)n1` [Example 5, 3-(5-{2-[6-(Methylamino)-2-pyridyl]ethoxy}indolyl)propanoic acid] it was 0.05 µM. Next, `CC(Cn1ccc2cc(OCCCNc3ccccn3)ccc21)C(=O)O` (stereo not shown) [Example 7, 2-Methyl-3-{5-[3-(2-pyridylamino)propoxy]indolyl}propanoic acid]: 0.5 µM; `CCCC(CC(=O)O)n1ccc2cc(OCCc3ccc4c(n3)NCCC4)ccc21` (stereo not shown) [Example 14, 3-{5-[2-(5,6,7,8-Tetrahydro-[1,8]naphthyridin-2-yl)-ethoxy]-indol-1-yl}-hexanoic acid]: 0.004 µM. Next, `O=C(O)CCn1ccc2cc(OCCc3ccc4c(n3)NCCC4)ccc21` [Example 15, 3-{5-[2-(5,6,7,8-Tetrahydro-[1,8]naphthyridin-2-yl)-ethoxy]-indol-1-yl}-propionic acid]: 0.006 µM. With `O=C(O)CC(c1cccnc1)n1ccc2cc(OCCc3ccc4c(n3)NCCC4)ccc21` (stereo not shown) [Example 38, 3-Pyridin-3-yl-3-{5-[2-(5,6,7,8-tetrahydro-[1,8]naphthyridin-2-yl)-ethoxy]-indol-1-yl}-propionic acid], the IC50 amounted to 0.00024 µM.

These data come from patent publication US7241789B2, “Substituted indoles and their use as integrin antagonists” (3-Dimensional Pharmaceutical, Inc., priority 2001, dated 2007).
